# Data taken from US9221809B2 (MERCK SHARP & DOHME CORP., priority 2011, dated 2015).
# pIC50: −log10 of the molar value. Where a name gives a salt, the structure may show the parent alone.
# Target: IRAK4 (Homo sapiens (Human), UniProt Q9NWZ3)
# Assay: IRAK4 kinase activity, IMAP fluorescence polarization assay
# Type: biochemical
# Conditions: 100 μM ATP, 0.5 nM GST tagged IRAK4; read-out: IRAK4 IC50
# Method in brief: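 Fluorescence polarization (IMAP nanoparticle binding of phosphopeptide) reports activity after a 30 min, 25 °C reaction. Conditions: 100 μM ATP, 0.5 nM GST-IRAK4, 100 nM fluorescent peptide, 10 mM Tris pH 7.2, 1 mM MgCl2, 1 mM DTT, 0.01% Tween 20.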
# IRAK4, sequence (Q9NWZ3 whole entry): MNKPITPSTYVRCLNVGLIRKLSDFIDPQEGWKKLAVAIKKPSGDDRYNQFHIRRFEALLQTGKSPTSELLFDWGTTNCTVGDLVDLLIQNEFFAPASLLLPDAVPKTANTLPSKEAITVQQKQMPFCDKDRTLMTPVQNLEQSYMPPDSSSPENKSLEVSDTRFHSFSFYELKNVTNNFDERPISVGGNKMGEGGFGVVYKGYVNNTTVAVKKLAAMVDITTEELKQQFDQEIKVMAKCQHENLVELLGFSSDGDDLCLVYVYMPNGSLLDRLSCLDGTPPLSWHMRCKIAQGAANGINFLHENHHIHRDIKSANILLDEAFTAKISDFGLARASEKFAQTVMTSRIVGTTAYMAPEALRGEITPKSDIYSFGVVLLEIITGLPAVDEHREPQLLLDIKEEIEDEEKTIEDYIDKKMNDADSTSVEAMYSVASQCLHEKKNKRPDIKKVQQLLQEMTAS
row,Compound,pIC50
1,"O=c1[nH]c(NC2CCC2)nc(N[C@@H]2C[C@H](CO)[C@@H](O)[C@H]2O)c1-c1nc2ccccc2s1 [Example 1, 5-(Benzo[d]thiazol-2-yl)-2-(cyclobutylamino)-6-((1R,2S,3R,4R)-2,3-dihydroxy-4-(hydroxymethyl)cyclopentylamino)pyrimidin-4(3H)-one.HCl]",7.70
2,"O=c1[nH]c(N2CCCC2)nc(N[C@@H]2CCCNC2)c1-c1ccc2ccccc2n1 [Example 114, (R)-6-(piperidin-3-ylamino)-2-(pyrrolidin-1-yl)-5-(quinolin-2-yl)pyrimidin-4(3H)-one.HCl]",7.62
3,"O=c1[nH]c(N2CCOCC2)nc(NCC(O)CO)c1-c1nc2ccccc2s1 (stereo not drawn) [Example 246, 5-(1,3-benzothiazol-2-yl)-6-[(2,3-dihydroxypropyl)amino]-2-(morpholin-4-yl)-3,4-dihydropyrimidin-4-one]",5.09
4,"CN1CCC[C@@H](Nc2nc(N3CCOCC3)[nH]c(=O)c2-c2nc3ccccc3s2)C1 [Example 95, (R)-5-(Benzo[d]thiazol-2-yl)-6-(1-methylpiperidin-3-ylamino)-2-morpholinopyrimidin-4(3H)-one.HCl]",6.45
5,"N[C@H]1CCCC[C@H]1Nc1cccc2sc(-c3c(N[C@@H]4CCCNC4)nc(N4CCOCC4)[nH]c3=O)nc12 (racemic) [Example 353, 5-[4-[(cis, rac)-(2-aminocyclohexyl)amino]-1,3-benzothiazol-2-yl]-2-(morpholin-4-yl)-6-[[(3R)-piperidin-3-yl]amino]-3,4-dihydropyrimidin-4-one]",7.62
6,"C[C@H]1CC[C@@H](Nc2nc(N3CCOCC3)[nH]c(=O)c2-c2nc3ccccc3s2)CN1 (racemic) [Example 123, 5-(benzo[d]thiazol-2-yl)-6((6-methylpiperidin-3-yl)amino)-2-morpholinopyrimidin-4(3H)-one.HCl]",6.07

# Same assay, conditions: 100 μM ATP; read-out: IC50
row,Compound,pIC50
1,"O=c1[nH]c(C2CCN(C3CCC3)CC2)nc(N[C@@H]2CCCNC2)c1-c1nc2ccccc2s1 [Example 230, (R)-5-(1,3-benzothiazol-2-yl)-2-[1-cyclo-butylpiperidin-4-yl)-6-[(piperidin-3-yl)amino]-3,4-dihydropyrimidin-4-one]",6.14
2,"COc1ccc(N2CCC3(CCN(c4nc(N[C@@H]5CCCNC5)c(-c5nc6ccccc6s5)c(=O)[nH]4)C3)C2)cc1 (stereo partly drawn) [Example 330, 5-(1,3-benzothiazol-2-yl)-2-[7-(4-methoxyphenyl)-2,7-diazaspiro[4.4]nonan-2-yl]-6-[[(3R)-piperidin-3-yl]amino]-3,4-dihydropyrimidin-4-one]",7.68
3,"CN(C)c1nc(N[C@@H]2CCCNC2)c(-c2nc3ccccc3s2)c(=O)[nH]1 [Example 289, (R)-5-(benzo[d]thiazol-2-yl)-2-(dimethylamino)-6-(piperidin-3-ylamino)pyrimidin-4(3H)-one]",7.13
4,"C[C@H]1C[C@@H](Nc2nc(N3CCOCC3)[nH]c(=O)c2-c2nc3ccccc3s2)CN1 [Example 209, 5-(benzo[d]thiazol-2-yl)-6-(((3R,5S)-5-methylpyrrolidin-3-yl)amino)-2-morpholinopyrimidin-4(3H)-one]",6.44
5,"O=c1[nH]c(C2CCN(C3CCCC3)CC2)nc(N[C@@H]2CCCNC2)c1-c1nc2ccccc2s1 [Example 231, 5-(1,3-benzothiazol-2-yl)-2-(1-cyclo-pentylpiperidin-4-yl)-6-[[(3R)-piperidin-3-yl]amino]-3,4-dihydropyrimidin-4-one]",6.21
6,"N[C@H]1C[C@H]1Nc1nc(N2CCOCC2)[nH]c(=O)c1-c1nc2ccccc2s1 [Example 247, 6-[[(1R,2S)-2-amino-cyclopropyl]amino]-5-(1,3-benzothiazol-2-yl)-2-(morpholin-4-yl)-3,4-dihydropyrimidin-4-one]",5.52
7,"CNC(=O)C1CN(c2nc(N[C@@H]3CCCNC3)c(-c3nc4ccccc4s3)c(=O)[nH]2)CCO1 (stereo partly drawn) [Example 287, 4-(5-(benzo[d]thiazol-2-yl)-6-oxo-4-((R)-piperidin-3-ylamino)-1,6-dihydropyrimidin-2-yl)-N-methylmorpholine-2-carboxamide]",6.96
8,"O=c1[nH]c(N2CCOCC2)nc(NCCN2CCC(O)CC2)c1-c1ccc2ccccc2n1 [Example 282, 6-[[2-(4-hydroxypiperidin-1-yl)ethyl]amino]-2-(morpholin-4-yl)-5-(quinolin-2-yl)-3,4-dihydropyrimidin-4-one]",5.66
9,"CC(=O)N1CCN(c2nc(N[C@@H]3CCCNC3)c(-c3nc4ccccc4s3)c(=O)[nH]2)CC1 [Example 316, 2-(4-acetylpiperazin-1-yl)-5-(1,3-benzothiazol-2-yl)-6-[[(3R)-piperidin-3-yl]amino]-3,4-dihydropyrimidin-4-one]",6.35

# Same assay, conditions: 100 μM ATP; read-out: IRAK4 IC50
row,Compound,pIC50
1,O=c1[nH]c(N2CCOCC2)nc(N[C@@H]2CCCNC2)c1-c1ccccn1 [Example 199],5.32
2,"COc1ccc(N2CCN(c3nc(N[C@@H]4CCCNC4)c(-c4nc5ccccc5s4)c(=O)[nH]3)CC2)nc1 [Example 141, (R)-5-(benzo[d]thiazol-2-yl)-2-(4-(5-methoxypyridin-2-yl)piperazin-1-yl)-6-(piperidin-3-ylamino)pyrimidin-4(3H)-one]",8.30
3,CC(C)(C)c1cccc(-c2c(N[C@@H]3CCCNC3)nc(N3CCOCC3)[nH]c2=O)n1 [Example 197],6.27
4,"COc1ccnc(N2CCN(c3nc(N[C@@H]4CCCNC4)c(-c4nc5ccccc5s4)c(=O)[nH]3)CC2)c1 [Example 142, (R)-5-(benzo[d]thiazol-2-yl)-2-(4-(4-methoxypyridin-2-yl)piperazin-1-yl)-6-(piperidin-3-ylamino)pyrimidin-4(3H)-one]",8.22
5,"Cc1cc(N2CCN(c3nc(N[C@@H]4CCCNC4)c(-c4nc5ccccc5s4)c(=O)[nH]3)CC2)sn1 [Example 157, (R)-5-(benzo[d]thiazol-2-yl)-2-(4-(3-methylisothiazol-5-yl)piperazin-1-yl)-6-(piperidin-3-ylamino)pyrimidin-4(3H)-one]",8.10
6,"CC1(O)CCN(c2nc(N[C@@H]3CCCNC3)c(-c3ccc4ccccc4n3)c(=O)[nH]2)C1 (stereo partly drawn) [Example 181, 2-(3-hydroxy-3-methylpyrrolidin-1-yl)-6-((R)-piperidin-3-ylamino)-5-(quinolin-2-yl)pyrimidin-4(3H)-one]",7.51

# Same assay, conditions: unit inferred; 100 μM ATP; read-out: IRAK4 IC50
row,Compound,pIC50
1,"CS(=O)(=O)C1CN(c2nc(N[C@@H]3C[C@H](CO)[C@@H](O)[C@H]3O)c(-c3nc4ccccc4s3)c(=O)[nH]2)C1 [Example 71, 5-(benzo[d]thiazol-2-yl)-6-((1R,2S,3R,4R)-2,3-dihydroxy-4-(hydroxymethyl)cyclopentylamino)-2-(3-(methylsulfonyl)azetidin-1-yl)pyrimidin-4(3H)-one]",7.75
2,"CS(=O)(=O)N1CCCN(c2nc(N[C@@H]3C[C@H](CO)[C@@H](O)[C@H]3O)c(-c3nc4ccccc4s3)c(=O)[nH]2)CC1 [Example 77, 5-(benzo[d]thiazol-2-yl)-6-((1R,2S,3R,4R)-2,3-dihydroxy-4-(hydroxymethyl)cyclopentylamino)-2-(4-(methylsulfonyl)-1,4-diazepan-1-yl)pyrimidin-4(3H)-one]",6.65
3,"O=c1[nH]c(N2CCC(c3ccccn3)CC2)nc(N[C@@H]2C[C@H](CO)[C@@H](O)[C@H]2O)c1-c1nc2ccccc2s1 [Example 78, 5-(benzo[d]thiazol-2-yl)-6-((1R,2S,3R,4R)-2,3-dihydroxy-4-(hydroxymethyl)cyclopentylamino)-2-(4-(pyridin-2-yl)piperidin-1-yl)pyrimidin-4(3H)-one]",7.44
